Results reported in patent US8445481B2, “Scaffold-diversified pyrrolidinone derivatives and their use” (The University of Chicago, priority 2007, dated 2013).

Tests used:
[1] = biological target: T1, hACC2 (Homo sapiens, UniProt O00763); settings: reference ACC inhibitor; cited from earlier work
T1 construct: expressed in transfected cells; host or cells: Saccharomyces cerevisiae

[2] = tested on: cellular glucose consumption; assay: Cellular glucose consumption; type: cell-based
[3] = tested on: CHO-K1 cells; assay: Cell proliferation, CHO-K1; type: cell-based
Protocol: (§1) Since respiration and glycolysis are tightly coupled in eukaryotic cells, a combination of suppressors of respiration with inhibitors of glycolysis were tested for cytotoxic phenotype.

[4] = tested on: cells; assay: Cell cycle arrest; type: cell-based
[5] = tested on: A549 cells; assay: Intracellular ATP level of A549 cells with or without antimycin A; type: cell-based; settings: presence versus absence of antimycin A (10 nM)
Protocol: (§2) A high-throughput assay was developed for identification of new inhibitors of glycolysis. The effect of the pyrrolidinone library on intracellular ATP level of A549 cells was tested in either the presence or absence of antimycin A (inhibitor of mitochondrial electron-transport chain). […] Initial hits were further verified by evaluating their effects on lactate production. Since lactate is a toxic end-product of glycolysis effluxed to the intercellular space, treatment of cells with glycolytic inhibitors should lead to decreased levels of lactate in cell culture medium.

[6] = tested on: A549 cells; assay: Cancer cell proliferation, A549; type: cell-based
Protocol: as §1

[7] = tested on: glycolysis; assay: Lactate production in cell culture medium; type: cell-based
Protocol: as §2

[8] = tested on: U-87MG glioma cells; assay: Combination of respiration suppressor and glycolysis inhibitor, cytotoxicity; type: cell-based; settings: in combination with leucascandrolide A
Protocol: as §1

[9] = tested on: tumor cells; assay: Sensitisation of tumor cells to 2-deoxyglucose; type: cell-based
Protocol: as §1

[10] = tested on: caspase-3/7; assay: Time-dependence of caspase-3/7 activation; type: cell-based; settings: HL-60 cells, time after treatment

T1 sequence (O00763 whole entry): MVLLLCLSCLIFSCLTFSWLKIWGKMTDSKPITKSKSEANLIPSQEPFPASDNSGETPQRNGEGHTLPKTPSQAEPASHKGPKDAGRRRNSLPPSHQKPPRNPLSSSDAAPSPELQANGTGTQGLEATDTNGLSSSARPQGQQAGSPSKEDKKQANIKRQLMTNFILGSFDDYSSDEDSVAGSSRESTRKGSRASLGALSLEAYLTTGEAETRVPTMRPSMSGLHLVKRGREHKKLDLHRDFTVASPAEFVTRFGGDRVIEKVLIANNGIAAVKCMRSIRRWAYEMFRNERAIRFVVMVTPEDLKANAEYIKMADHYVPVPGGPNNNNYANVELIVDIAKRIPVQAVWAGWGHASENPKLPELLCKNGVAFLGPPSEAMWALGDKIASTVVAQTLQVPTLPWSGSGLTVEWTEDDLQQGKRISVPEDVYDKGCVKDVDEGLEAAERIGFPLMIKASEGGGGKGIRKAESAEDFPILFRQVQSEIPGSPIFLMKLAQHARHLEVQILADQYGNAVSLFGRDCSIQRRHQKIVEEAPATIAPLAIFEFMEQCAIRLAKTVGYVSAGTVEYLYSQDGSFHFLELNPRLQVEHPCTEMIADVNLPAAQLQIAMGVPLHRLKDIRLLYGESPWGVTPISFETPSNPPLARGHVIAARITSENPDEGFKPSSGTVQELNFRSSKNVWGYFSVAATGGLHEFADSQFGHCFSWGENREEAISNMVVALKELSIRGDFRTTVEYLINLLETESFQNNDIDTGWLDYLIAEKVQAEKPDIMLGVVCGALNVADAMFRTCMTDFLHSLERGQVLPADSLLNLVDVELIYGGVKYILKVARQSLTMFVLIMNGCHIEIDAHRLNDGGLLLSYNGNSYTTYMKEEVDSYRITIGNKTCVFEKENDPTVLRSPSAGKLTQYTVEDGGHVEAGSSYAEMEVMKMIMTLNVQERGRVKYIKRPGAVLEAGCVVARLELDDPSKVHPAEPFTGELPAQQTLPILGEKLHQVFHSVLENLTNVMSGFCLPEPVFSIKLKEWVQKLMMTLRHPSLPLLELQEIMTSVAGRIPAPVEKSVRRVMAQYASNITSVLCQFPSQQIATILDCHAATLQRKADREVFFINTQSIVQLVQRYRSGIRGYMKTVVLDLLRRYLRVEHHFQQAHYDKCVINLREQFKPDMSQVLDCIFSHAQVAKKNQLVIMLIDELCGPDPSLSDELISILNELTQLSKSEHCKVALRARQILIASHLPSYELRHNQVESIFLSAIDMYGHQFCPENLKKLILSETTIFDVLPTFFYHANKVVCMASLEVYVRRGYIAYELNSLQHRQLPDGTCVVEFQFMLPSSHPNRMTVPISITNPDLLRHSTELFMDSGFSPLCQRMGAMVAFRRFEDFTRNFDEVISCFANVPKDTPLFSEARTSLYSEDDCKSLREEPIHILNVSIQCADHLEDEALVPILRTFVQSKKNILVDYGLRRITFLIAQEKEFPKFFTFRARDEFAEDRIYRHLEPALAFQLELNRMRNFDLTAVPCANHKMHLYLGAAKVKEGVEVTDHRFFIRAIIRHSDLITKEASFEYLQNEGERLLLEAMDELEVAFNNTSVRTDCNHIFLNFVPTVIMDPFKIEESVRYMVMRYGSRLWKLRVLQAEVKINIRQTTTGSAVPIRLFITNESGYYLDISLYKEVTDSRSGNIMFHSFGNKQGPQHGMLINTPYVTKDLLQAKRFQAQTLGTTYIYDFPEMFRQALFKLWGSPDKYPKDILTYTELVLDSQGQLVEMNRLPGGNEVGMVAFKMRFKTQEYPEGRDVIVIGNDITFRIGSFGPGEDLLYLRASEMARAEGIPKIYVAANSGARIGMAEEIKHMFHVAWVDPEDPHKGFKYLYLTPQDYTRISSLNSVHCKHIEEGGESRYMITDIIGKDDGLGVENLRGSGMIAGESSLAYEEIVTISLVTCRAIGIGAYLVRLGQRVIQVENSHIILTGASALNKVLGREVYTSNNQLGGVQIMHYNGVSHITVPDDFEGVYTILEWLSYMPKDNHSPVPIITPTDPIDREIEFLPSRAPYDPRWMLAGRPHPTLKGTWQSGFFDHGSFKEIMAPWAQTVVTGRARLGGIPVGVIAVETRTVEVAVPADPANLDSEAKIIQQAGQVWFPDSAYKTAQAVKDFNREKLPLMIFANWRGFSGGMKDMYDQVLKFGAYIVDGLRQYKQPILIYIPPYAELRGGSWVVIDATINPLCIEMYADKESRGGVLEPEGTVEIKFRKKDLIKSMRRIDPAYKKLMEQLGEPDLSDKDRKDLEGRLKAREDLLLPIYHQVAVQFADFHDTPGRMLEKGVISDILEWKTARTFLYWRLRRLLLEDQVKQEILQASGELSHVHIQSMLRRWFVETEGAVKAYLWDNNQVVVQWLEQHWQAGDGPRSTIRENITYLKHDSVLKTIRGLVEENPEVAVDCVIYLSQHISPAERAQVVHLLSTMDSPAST

| Compound | effect on cell proliferation [3] | cell cycle arrest [4] | suppression of ATP production [5] | effect on cancer cell proliferation [6] | lactate production [7] | other results |
| --- | --- | --- | --- | --- | --- | --- |
| CC(C#Cc1cnc(Oc2ccc(Oc3ccccc3)cc2)s1)N(O)C(N)=O (stereo not shown) [Example A-80040] |  |  |  |  |  | ACC2 specificity [1]: certain level of ACC2 specificity |
| COC(=O)[C@@]12CCCCC/C=C\1N(Cc1cccc3ccccc13)C(=O)[C@H]2CC(=O)N1CCN(C(=O)c2ccco2)CC1 [Example P9E11] | cytostatic effect | arrested cells in G1 phase | suppressed ATP production more efficiently in the presence of antimycin A | cytostatic effect | inhibited lactate production | cellular glucose consumption [2]: rapidly inhibited cellular glucose consumption; activity profile compared with cytochalasin B ([2]; cytochalasin B is an established inhibitor of glucose transport): essentially identical activity profile to cytochalasin B |
| COC(=O)[C@@]12CCCCC=C1N(CCC1=CCCCC1)C(=O)[C@H]2CC(=O)NCc1ccc(OC)c(OC)c1 [Example P8A7] | cytostatic effect | arrested cells in G1 phase | suppressed ATP production more efficiently in the presence of antimycin A | cytostatic effect | inhibited lactate production | cell death on combined treatment [8]: severe cell death |
| rhodamine 123 |  |  |  |  |  | sensitisation of tumor cells to 2-deoxyglucose [9]: hypersensitized tumor cells to treatment with 2-deoxyglucose |
| CN[C@@H]1C[C@H]2O[C@@](C)([C@@H]1OC)n1c3ccccc3c3c4c(c5c6ccccc6n2c5c31)C(=O)NC4 [staurosporine] |  |  |  |  |  | caspase-3/7 activation over time [10]: increased activity between 3 and 6 hours after treatment, after which activity decreased |
